Data: patent publication US20100267561A1, “HERBICIDAL PYRIDAZINONE DERIVATIVES” (priority 2007, published 2010)

How the values were obtained:
Assay type in all cases: in vivo
[1] = system: barnyardgrass (Echinochloa crus-galli); experiment: Test A pre-/postemergence plant response
Procedure, shortened: (§1)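 Soil: loam blended with sand. Formulation: non-phytotoxic solvent mixture plus surfactant, applied as preemergence directed soil spray and as postemergence spray. Scoring: visual, 0 no effect to 100 complete control, roughly 10 days post-treatment in greenhouse.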

[2] = system: corn (Zea mays); experiment: Test A pre-/postemergence plant response
Procedure, shortened: as §1

[3] = system: large crabgrass (Digitaria sanguinalis); experiment: Test A pre-/postemergence plant response
Procedure, shortened: as §1

[4] = system: morningglory (Ipomoea coccinea); experiment: Test A pre-/postemergence plant response
Procedure, shortened: as §1

[5] = system: pigweed (Amaranthus retroflexus); experiment: Test A pre-/postemergence plant response
Procedure, shortened: as §1

[6] = system: velvetleaf (Abutilon theophrasti); experiment: Test A pre-/postemergence plant response
Procedure, shortened: as §1

[7] = system: wheat (Triticum aestivum); experiment: Test A pre-/postemergence plant response
Procedure, shortened: as §1

[8] = system: canarygrass (Phalaris minor); experiment: Test B postemergence plant response; conditions: Postemergence
Procedure, shortened: (§2)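 Emerged plants, 1- to 4-leaf stage, treated; greenhouse 13–15 d; eye-scored vs untreated controls (0–100 scale).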

[9] = system: chickweed (Stellaria media); experiment: Test B postemergence plant response; conditions: Postemergence
Procedure, shortened: as §2

[10] = system: windgrass (Apera spica-venti); experiment: Test B postemergence plant response; conditions: Postemergence
Procedure, shortened: as §2

[11] = system: winter barley (Hordeum vulgare); experiment: Test B postemergence plant response; conditions: Postemergence
Procedure, shortened: as §2

[12] = system: barnyardgrass (Echinochloa crus-galli); experiment: Test B flooded paddy test plant response
Procedure, shortened: (§3)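 Step one: raise plants to 2 leaves. Step two: flood pots 3 cm over the soil and apply compound into the water, keeping this depth. Step three: after 13–15 greenhouse days, score visually versus controls, 0–100, where 100 means complete control.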

[13] = system: ducksalad (Heteranthera limosa); experiment: Test B flooded paddy test plant response
Procedure, shortened: as §3

[14] = system: rice (Oryza sativa); experiment: Test B flooded paddy test plant response
Procedure, shortened: as §3

[15] = system: umbrella sedge (Cyperus difformis); experiment: Test B flooded paddy test plant response
Procedure, shortened: as §3

[16] = Postemergence, 125 g ai/ha, 0 to 100 scale, 0 no effect, 100 complete control
[17] = Postemergence, 500 g ai/ha, 0 to 100 scale, 0 no effect, 100 complete control
[18] = Preemergence, 125 g ai/ha, 0 to 100 scale (0 no effect, 100 complete control)
[19] = Preemergence, 500 g ai/ha, 0 to 100 scale (0 no effect, 100 complete control)
[20] = 31 g ai/ha, scale 0 to 100, 0 no effect, 100 complete control
[21] = Flood (flooded paddy test), 62 g ai/ha, scale 0 to 100, 0 no effect, 100 complete control
[22] = Flood (flooded paddy test), 125 g ai/ha, scale 0 to 100, 0 no effect, 100 complete control
[23] = Flood (flooded paddy test), 250 g ai/ha, scale 0 to 100, 0 no effect, 100 complete control
[24] = Flood, 31 g ai/ha, scale 0 to 100

In the case of “4-[3-(4-chlorophenyl)-5-methyl-1H-pyrazol-3-yl]-5-hydroxy-2-methyl-3(2H)-pyridazinone [Compound 3]”, the “Plant response rating, Barnyardgrass” value [1, 16] is reported as 100, the “Plant response rating, Barnyardgrass” value [1, 17] is reported as 100 and the “Plant response rating, Barnyardgrass” value [1, 18] is reported as 90. The “Plant response rating, Barnyardgrass” value [1, 19] was 100, the “Plant response rating, Corn” value [2, 16] was 90 and the “Plant response rating, Corn” value [2, 17] was 100. For the same substance, the “Plant response rating, Corn” value [2, 18] was 80, the “Plant response rating, Corn” value [2, 19] was 90 and the “Plant response rating, Crabgrass, Large” value [3, 16] was 100. The “Plant response rating, Crabgrass, Large” value [3, 17] was 100, the “Plant response rating, Crabgrass, Large” value [3, 18] was 100 and the “Plant response rating, Crabgrass, Large” value [3, 19] was 100. For the same substance, the “Plant response rating, Morningglory” value [4, 16] was 50, the “Plant response rating, Morningglory” value [4, 17] was 60 and the “Plant response rating, Morningglory” value [4, 18] was 0. For the same substance, the “Plant response rating, Morningglory” value [4, 19] was 0, the “Plant response rating, Pigweed” value [5, 16] was 0 and the “Plant response rating, Pigweed” value [5, 17] was 10. For the same substance, the “Plant response rating, Pigweed” value [5, 18] was 0, the “Plant response rating, Pigweed” value [5, 19] was 0 and the “Plant response rating, Velvetleaf” value [6, 16] was 0. The “Plant response rating, Velvetleaf” value [6, 17] was 50, the “Plant response rating, Velvetleaf” value [6, 18] was 0 and the “Plant response rating, Velvetleaf” value [6, 19] was 10. The “Plant response rating, Wheat” value [7, 16] was 70, the “Plant response rating, Wheat” value [7, 17] was 90 and the “Plant response rating, Wheat” value [7, 18] was 70. The “Plant response rating, Wheat” value [7, 19] was 90, the “Plant response rating, Canarygrass” value [8, 20] was 85 and the “Plant response rating, Canarygrass” value ([8]; 62 g ai/ha, scale 0 to 100) was 85. For the same substance, the “Plant response rating, Canarygrass” value ([8]; 125 g ai/ha, scale 0 to 100) was 85, the “Plant response rating, Canarygrass” value ([8]; 250 g ai/ha, scale 0 to 100) was 90 and the “Plant response rating, Chickweed” value [9, 20] was 0. For the same substance, the “Plant response rating, Chickweed” value ([9]; 62 g ai/ha, scale 0 to 100) was 0, the “Plant response rating, Chickweed” value ([9]; 125 g ai/ha, scale 0 to 100) was 0 and the “Plant response rating, Chickweed” value ([9]; 250 g ai/ha, scale 0 to 100) was 0. The “Plant response rating, Windgrass” value [10, 20] was 80, the “Plant response rating, Windgrass” value ([10]; 62 g ai/ha, scale 0 to 100) was 100 and the “Plant response rating, Windgrass” value ([10]; 125 g ai/ha, scale 0 to 100) was 100. For the same substance, the “Plant response rating, Windgrass” value ([10]; 250 g ai/ha, scale 0 to 100) was 100, the “Plant response rating, Barley” value [11, 20] was 0 and the “Plant response rating, Barley” value ([11]; 62 g ai/ha, scale 0 to 100) was 0. For the same substance, the “Plant response rating, Barley” value ([11]; 125 g ai/ha, scale 0 to 100) was 0, the “Plant response rating, Barley” value ([11]; 250 g ai/ha, scale 0 to 100) was 0 and the “Plant response rating, Barnyardgrass” value [12, 21] was 60. For the same substance, the “Plant response rating, Barnyardgrass” value [12, 22] was 70, the “Plant response rating, Barnyardgrass” value [12, 23] was 80 and the “Plant response rating, Barnyardgrass” value [12, 24] was 0. For the same substance, the “Plant response rating, Ducksalad” value [13, 21] was 0, the “Plant response rating, Ducksalad” value [13, 22] was 0 and the “Plant response rating, Ducksalad” value [13, 23] was 40. For the same substance, the “Plant response rating, Ducksalad” value [13, 24] was 0, the “Plant response rating, Rice” value [14, 21] was 60 and the “Plant response rating, Rice” value [14, 22] was 75. The “Plant response rating, Rice” value [14, 23] was 80, the “Plant response rating, Rice” value [14, 24] was 20 and the “Plant response rating, Sedge, Umbrella” value [15, 21] was 60. The “Plant response rating, Sedge, Umbrella” value [15, 22] was 80, the “Plant response rating, Sedge, Umbrella” value [15, 23] was 80 and the “Plant response rating, Sedge, Umbrella” value [15, 24] was 60.
